Measured values reported in patent US8729254B2, “Derivative of glucose and vitamin F, compositions comprising it, uses and preparation process” (L'Oreal, priority 2002, dated 2014).

Columns and labels:
[1] = target: T1, purified soybean 15-lipoxygenase L1 (Glycine max, UniProt P08170); experiment: inhibition of purified soybean 15-lipoxygenase (oxymeter, Vmax of oxygen consumption); type: biochemical; conditions: test compound at 1 mM, relative to the control (DMSO), 25° C., pH 7.5, average of 10 tests
T1 sequence (P08170 1-839): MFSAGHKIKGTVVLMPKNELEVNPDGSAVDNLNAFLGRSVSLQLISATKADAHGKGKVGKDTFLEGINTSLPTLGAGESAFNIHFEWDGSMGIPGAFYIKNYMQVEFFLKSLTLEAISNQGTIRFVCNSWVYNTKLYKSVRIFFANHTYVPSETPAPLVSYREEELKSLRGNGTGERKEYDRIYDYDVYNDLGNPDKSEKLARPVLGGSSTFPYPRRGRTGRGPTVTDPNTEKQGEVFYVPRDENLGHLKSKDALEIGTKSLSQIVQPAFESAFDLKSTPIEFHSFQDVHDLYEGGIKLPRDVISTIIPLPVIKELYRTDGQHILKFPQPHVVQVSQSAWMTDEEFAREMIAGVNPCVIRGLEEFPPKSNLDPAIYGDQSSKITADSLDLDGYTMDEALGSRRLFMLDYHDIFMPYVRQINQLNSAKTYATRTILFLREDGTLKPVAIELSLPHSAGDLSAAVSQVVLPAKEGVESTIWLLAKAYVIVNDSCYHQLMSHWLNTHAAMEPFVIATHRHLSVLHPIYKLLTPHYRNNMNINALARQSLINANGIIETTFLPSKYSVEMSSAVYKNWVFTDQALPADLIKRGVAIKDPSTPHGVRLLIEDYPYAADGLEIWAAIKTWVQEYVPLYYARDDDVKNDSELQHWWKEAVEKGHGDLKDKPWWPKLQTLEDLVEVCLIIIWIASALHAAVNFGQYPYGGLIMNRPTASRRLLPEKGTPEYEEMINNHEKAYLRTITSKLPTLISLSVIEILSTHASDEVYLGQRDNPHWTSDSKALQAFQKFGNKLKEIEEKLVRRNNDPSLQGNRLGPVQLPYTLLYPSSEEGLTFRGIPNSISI
Experimental: The effect of the compounds of disclosed herein on the inhibition of purified soybean 15-lipoxygenase was thus tested, given that soybean 15-lipoxygenase is a study model commonly used as a predictive model for human 5-lipoxygenase.
The test performed was as follows:
preparation of a 100 mM, pH 7.5 Tris buffer solution
preparation of a suspension of purified soybean 15-lipoxygenase L1 (0.20 mg/ml) in a pH 7.5100 mM Tris buffer; storage in ice;
calibration of the oxymeter, tank equipped with a magnetic stirring system and thermostatically maintained at 25° C.;
preparation of an aqueous-alcoholic solution (absolute ethanol/water, 5/95, v/v) of potassium arachidonate at a concentration of 7.5 mM;
preparation of a solution of the test compound at a concentration of 30 mM in dimethyl sulphoxide (DMSO);
introduction into the oxymeter tank, with stirring, of 456.6 μl of buffer solution, 16.7 μl of potassium arachidonate solution and 16.7 μl of solution of the test compound or 16.7 μl of DMSO in the case of the “control” measurement.
The recorder was switched on and 10 μl of suspension of 15-lipoxygenase was introduced into the tank.
The maximum rate of consumption of oxygen (Vmax) was recorded.
The various Vmax values were compared with that of the control and the results were expressed as a % thereof. The test was repeated 10 times and an average of these 10 tests were determined.

[2] = 0.1% by weight in ethanol/isopropanol/water (64/16/20 by volume), 45° C., 2 months; hydrolysed glucopyranose linoleate by HPLC
Experimental: The stability of the compounds disclosed herein were assessed (measured by the hydrolysis of the esters).
Solutions comprising 0.1% by weight of the compounds in an ethanol/isopropanol/water mixture (64/16/20 by volume) were prepared. These solutions were left in a chamber thermostatically maintained at 45° C. for 2 months.

Structure (SMILES)	inhibition at 1000 µM [1] [%]	% of hydrolysis [2] [%]
CCCCCC=CCC=CCCCCCCCC(=O)OC[C@H]1OC(O)[C@H](O)[C@@H](O)[C@@H]1O (stereo partly drawn) [Compound A, 6-O-octadeca-9,12-dienoyl-D-glucopyranose]	71	7
CCCCCCCCC=CCCCCCCCC(=O)OC[C@H]1OC(O)[C@H](O)[C@@H](O)[C@@H]1O (stereo partly drawn) [Compound B, 6-O-octadeca-9-enoyl-D-glucopyranose]	30	
CCCCCCCCCCCCCCCCCC(=O)OC[C@H]1OC(O)[C@H](O)[C@@H](O)[C@@H]1O (stereo partly drawn) [Compound C, 6-O-octadecanoyl-D-glucopyranose]	49	
CCCCCCCCCCCCCCCC(=O)OC[C@H]1OC(O)[C@H](O)[C@@H](O)[C@@H]1O (stereo partly drawn) [Compound D, 6-O-hexadecanoyl-D-glucopyranose]	15	
CCCCCC=CCC=CCCCCCCCC(=O)O[C@H]1[C@H](O)[C@@H](CO)OC(O)[C@@H]1O (stereo partly drawn) [Compound E, 3-O-octadeca-9,12-dienoyl-D-glucopyranose]	80	30
